Test results from patent US6407064B2, “Aminoalcohol derivative and medicament comprising the same” (Seikagaku Corporation, priority 1999, dated 2002).

Test system: ganglioside GM3, mouse B16 melanoma cells
Assay: Synthesized amount of ganglioside GM3 (HPTLC densitometry)
Type: cell-based
Settings: relative value, control regarded as 100, test compound 25 μM, 24 hours
Description: A liquid where the cells of mouse B16 melanoma were suspended was prepared with Dulbecco modified Eagle's medium containing 10% bovine fetal serum, inoculated into a culture flask (175 cm^2) in an amount of 0.8×10^7 cells/20 ml, and cultured in 5% CO2 incubator at 37° C. The treatment with a test compound (25 μM) was started through the exchange of three fourths of the medium 24 hours after the culture was started. Twenty-four hours after the treatment with the test compound was started, the culture mixture was treated with PBS containing 0.02% EDTA and PBS containing 0.25% trypsin successively to recover the cells.
Then, a mixed solvent of chloroform:methanol=2:1 (4 ml) was added to the cell pellet and, after the subjection to an ultrasonication for 30 minutes, the cell pellet solution was allowed to stand at room temperature for a night and the supernatant was recovered. Furthermore, a mixed solvent of chloroform:methanol=1:1 (4 ml) was added to the residual pellet after the recovery of the supernatant, and a similar operation was carried out. The resulting supernatant was combined with the first supernatant and the whole was evaporated to dryness under a nitrogen stream. To the total lipid fraction was added a 0.1 N methanolic sodium hydroxide solution (2.0 ml) and the mixture was allowed to stand at 40° C. for 2 hours. Thereafter, 1 N hydrochloric acid (0.2 ml) was added thereto and the mixture was allowed to stand for 1.5 hours.
Then, the mixture was washed with n-hexane (2 ml×2) and, after the lower layer thus washed was evaporated to dryness under a nitrogen stream, the residue was desalinated by gel filtration chromatography (Sephadex LH-20 (manufactured by Amersham Pharmacia Biotech), diameter of 10 mm, height of 120 mm) using chloroform:methanol=2:1 as the eluting solvent. […] After orcinol-sulfuric acid reagent had been sprayed on the plate, it was heated at 110° C. for 5 minutes and colored spot of ganglioside GM3 was quantitatively determined by means of densitometer (a measuring wavelength of 505 nm). […]

## CCCCCCCCCC(=O)N[C@@H](CN1CCOCC1)[C@@H](O)c1ccccc1 [L-PDMP, (1S,2S)-1-phenyl-2-decanoylamino-3-morpholino-1-propanol, reference compound]
  Glycolipid content (Test Example 3): 100.7
